One data set deals with 60 cancer cell lines. The data set is described as follows: NCI 60-cell screen, SRB, whole panel (mean, delta, range). The note with it: 10^−5 molar, 48 hours, SRB; for Growth percent, Delta: delta over the cell panel; for Growth percent, Range: range over the cell panel. Type of data set: cell-based.
The subject of a further data set is HOP-62. It is filed as cell-based. The note with it: Non-small cell lung cancer; 10^−5 molar; 48 hours; SRB.

The text below walks through data of patent US8927717B1, “Thiochromeno[2,3-c]quinolin-12-one derivatives, preparation method and application thereof” (National Defense Medical Center, priority 2014, dated 2015).

Bounds are passed on as bounds.

Turning to `O=C(O)c1c(Sc2ccc(Cl)cc2)c(O)nc2ccccc12` [Compound 2, 3-((4-Chlorophenyl)thio)-2-hydroxyquinoline-4-carboxylic acid], the melting point (commonly the temperature of the solid-liquid transition) fell in the range of 306 to 308 °C. In addition, in the data set on 60 cancer cell lines, the “Growth percent, Delta” value is given as 33.20% and the “Growth percent, Range” value is given as 55.29%.
The corresponding values for `O=c1c2cc(Cl)ccc2sc2c(O)nc3ccccc3c12` [Compound 4, 10-Chloro-6-hydroxy-12H-thiochromeno[2,3-c]quinolin-12-one] are > 410 °C, 30.54% and 50.31%.
`COc1nc2ccccc2c2c(=O)c3cc(Cl)ccc3sc12` [Compound 5, 10-Chloro-6-methoxy-12H-thiochromeno[2,3-c]quinolin-12-one] had a melting point of 227 to 228 °C. In addition, in the data set with 60 cancer cell lines, the “Growth percent, Delta” value worked out at 39.82% and the “Growth percent, Range” value amounted to 61.02%. For the same compound, the “Growth percent HOP-62” value with HOP-62 amounted to 96.64%.
Compound `CN(C)c1nc2ccccc2c2c(=O)c3cc(Cl)ccc3sc12` [Compound 6, 10-Chloro-6-dimethylamino-12H-thiochromeno[2,3-c]quinolin-12-one] had a melting point of 194 to 195 °C. In addition, in the data set with 60 cancer cell lines, the “Growth percent, Delta” value came out at 65.30% and the “Growth percent, Range” value is 93.93%.
For `CN1CCN(c2nc3ccccc3c3c(=O)c4cc(Cl)ccc4sc23)CC1` [Compound 8, 10-Chloro-6-(4-methylpiperazin-1-yl)-12H-thiochromeno[2,3-c]quinolin-12-one], in that order: 212 to 214 °C, 68.64% and 92.74%.
For `O=c1c2cc(Cl)ccc2sc2c(N3CCN(CCO)CC3)nc3ccccc3c12` [Compound 10, 10-Chloro-6-(4-(2-hydroxyethyl)piperazin-1-yl)-12H-thiochromeno[2,3-c]quinolin-12one], in that order: 211 to 213 °C, 48.59% and 83.73%.
`O=c1c2cc(Cl)ccc2sc2c(N3CCN(c4ccccc4)CC3)nc3ccccc3c12` [Compound 12, 10-Chloro-6-(4-phenylpiperazin-1-yl)-12H-thiochromeno[2,3-c]quinolin-12-one] yielded a melting point of 236 to 237 °C. Moreover, in the data set with 60 cancer cell lines, the “Growth percent, Delta” value is 35.45% and the “Growth percent, Range” value worked out at 60.10%.
With `O=c1c2cc(Cl)ccc2sc2c(N3CCOCC3)nc3ccccc3c12` [Compound 13, 10-Chloro-6-morpholino-12H-thiochromeno[2,3-c]quinolin-12-one], the melting point was 217 to 218 °C. Besides, in the data set with 60 cancer cell lines, the “Growth percent, Delta” value is on record as 50.85% and the “Growth percent, Range” value is given as 79.17%.
`O=c1c2cc(Cl)ccc2sc2c(NCc3ccccn3)nc3ccccc3c12` [Compound N26, 10-Chloro-6-((pyridin-2-ylmethyl)amino)-12H-thiochromeno[2,3-c]quinolin-12-one] returned a melting point of 187 to 189 °C.
`COc1ccccc1CNc1nc2ccccc2c2c(=O)c3cc(Cl)ccc3sc12` [Compound N28, 10-Chloro-6-((2-methoxybenzyl)amino)-12H-thiochromeno[2,3-c]quinolin-12-one] came in with a melting point of 223 to 224 °C.
The compound `COc1ccc(CNc2nc3ccccc3c3c(=O)c4cc(Cl)ccc4sc23)cc1OC` [Compound N29, 10-Chloro-6-((3,4-dimethoxybenzyl)amino)-12H-thiochromeno[2,3-c]quinolin-12-one] displayed a melting point of 251 to 252 °C.
Take `NC(N)=Nc1nc2ccccc2c2c(=O)c3cc(Cl)ccc3sc12` [Compound N33, 2-(10-Chloro-12-oxo-12H-thiochromeno[2,3-c]quinolin-6-yl)guanidine]: the melting point is 370 °C (dec.).
On the same count and under the same terms, the value for `O=c1c2cc(Cl)ccc2sc2c(NN3CCCCC3)nc3ccccc3c12` [Compound N34, 10-Chloro-6-(piperidin-1-ylamino)-12H-thiochromeno[2,3-c]quinolin-12-one] was 180 to 181 °C.
